From patent US20230212571A1, “COMPOSITIONS AND METHODS FOR DELIVERING POLYNUCLEOTIDES” (NeOnc Technologies, Inc., priority 2020, published 2023) come the findings set out here.

In one data set the test system is BEC. Put plainly: Invasion assay, Matrigel-coated Boyden chamber, control BEC. The data set is classed as cell-based, human. The note with it: P>0.9999. From the text: The chemoinvasion assay was described^14. (Marín-Ramos N I, Thein T Z, Cho H-Y, et al. NEO212 inhibits migration and invasion of glioma stem cells. Mol Cancer Ther. 2018; 17(3):625-637). Pictures were captured using an Eclipse 80i microscope (Nikon), and cells counted with ImageJ Software (NIH).

The test system of data set [1] is Mgp^−/− mouse model of AVM. Nature of the data set: Organ histology and complete blood count. The data set is classed as in vivo. The settings on record: Mgp^−/− mice, IN 2-weeks. The protocol:
In vivo efficacy studies were performed using 3-week-old Mgp^+/- C57BL/6 mice^16,17 (Yao Y, Jumabay M, Wang A, Boström K I. Matrix Gla protein deficiency causes arteriovenous malformations in mice. J Clin Invest. 2011; 121(8):2993-3004) (Yao Y, Yao […], et al. Reducing Jagged 1 and 2 levels prevents cerebral arteriovenous malformations in matrix Gla protein deficiency. Proc Nat Acad Sci USA. 2013; 110(47):19071-19076). provided by Dr. Yucheng Yao (UCLA, Los Angeles) and mated to obtain the appropriate genotypes. Only about 10-15% of each litter were born with the Mgp^-/- genotype, and among those, only about 45% survived until the end of the treatment and/or the imaging of the brain vasculature, due to the extreme severity of the disease in this mouse model. These animals not only suffer AVMs in the brain, but all major organs are also affected and dysfunctional. Thus, […] might die due to several causes, including stroke, severe lung inflammation that causes respiratory failure-especially when anesthesia is used-, organ failure due to liver and/or spleen malfunction, heart failure, etc., drastically limiting the number of the Mgp^-/- mice available for the CTA studies. […] Treatment with 0.08 nmol/mouse of miR-18a or scramble microRNA was administered IN daily for 2-weeks. 2.5 μL/nostril were delivered in RNase-free water. Ultra-high-resolution in vivo computed tomography angiography (CTA) was performed in mice for 3D imaging of whole brain vascular architecture^18, ([…], Rendon D, et al. Ultra-High-Resolution In vivo Computed Tomography Imaging of Mouse Cerebrovasculature Using a Long Circulating Blood Pool Contrast Agent. Scientific reports. 2015; 5:10178) as described in Data. The vascular data was quantified using ImageJ. Regions of interest encompassing the Circle of Willis (CoW) and the azygous of the anterior cerebral artery (AzACA) and its branches were selected in CT images using thick slab maximum intensity projection (MIP) or 3D volume rendering. The images were converted to 8-bit grayscale and thresholded to highlight the vasculature containing pixels. The pixels were analyzed as particles and normalized to results from the wildtype mice (WT, Mgp^+/+). Immediately after imaging, mice were euthanized, and brains were frozen in Clear Frozen Section Compound (VWR) and stored at -80° C. Blood was collected for complete blood count (Antech). The lungs, livers, spleens, femurs, and kidneys were harvested and fixed in 10% formalin. Photographs of the stained sections were captured using an Eclipse 80i microscope (Nikon).

For a further data set, the system named is AVM-BEC. Nature of the data set: Human Notch Signaling Pathway PCR array in AVM-BEC. The data set is classed as cell-based. The method, then:
MiR-18a (hsa-miR-18a-5p, 40 nM, Dharmacon) or a scramble microRNA (40 nM, Dharmacon) in nuclease-free water was added with argonaute 2 (Ago-2, 0.4 nM, Abcam) as the microRNA carrier and stabilizer^9. (Ferreira R, Santos T, Amar A, et al. Argonaute-2 promotes miR-18a entry in human brain endothelial cells. J Am Heart Assoc. 2014; 3(3):e000968). No transfection reagent was used with miR-18a or scramble microRNA treatments. Recombinant human TSP-1 (R&D Systems) stock solution was prepared in PBS and further diluted in culture medium to be used at a final concentration of 1000 ng/mL. Cells were treated during 24 h for mRNA and 48 h for protein expression studies. NEO100 (NeOnc Technologies) stock was prepared in DMSO and used immediately or stored at −20° C.
The extraction and analysis of total mRNA and microRNAs were described^9,13. (Ferreira R, Santos T, Amar A, et al. Argonaute-2 promotes miR-18a entry in human brain endothelial cells. J Am Heart Assoc. 2014; 3(3):e000968) (Marín-Ramos N I, Jhaveri N, Thein T Z, Fayngor R A, Chen T C, Hofman F M. NEO212, a conjugate of temozolomide and perillyl alcohol, blocks the endothelial-to-mesenchymal transition in tumor-associated brain endothelial cells in glioblastoma. Cancer Lett. 2018; 442:170-180). The Human Notch Signaling Pathway RT^2 Profiler PCR Array (Qiagen) was used to analyze the expression of 84 genes related to Notch signaling. For mRNA studies, […] (B2M) was measured for sample normalization. The primer sequences were included in Table 2. For microRNA analysis, RNU44 and U6 snRNA TaqMan microRNA Control Assays were used for normalization of human and mice samples, respectively.

Regarding “hsa-miR-18a-5p (UAGGUGCAUCUAGUGCAGAUAG; chemistry not given here; listed as Homo sapiens) [small non-coding RNA molecule involved in post-transcriptional regulation of gene expression; Dharmacon]”, the invasiveness result with BEC was “without affecting control BEC”. In addition, in data set [1], the “bone marrow phenotype (adipose cells, megakaryocytes)” value is recorded as “normalized”; the “macrophages in alveoli, lung inflammation” value is “not present”; the polychromasia result is listed as “minimal or not present”; the “spleens, macroscopic, compared with Mgp^+/+ and Mgp^−/+” value is “comparable”. In addition, in data set [1] (n=3), the “blood levels of hematocrit (HCT)” value is listed as “normalized”, the “blood levels of hemoglobin (HGB)” value is reported as “normalized” and the “blood levels of red blood cells (RBC)” value is “normalized”. The “ADAM10 mRNA expression” value in the data set with AVM-BEC (FIG. 13) was “downregulated”. Moreover, in the data set with AVM-BEC (among the affected genes), the Notch-related genes downregulated is listed as 50 genes. In addition, the “Notch-related genes affected (fold change>2)” value in the data set with AVM-BEC (of 84 Notch-related genes) was 68 genes.
